Numbers after ± are expanded uncertainties.
Details: Liquid, Ebulliometric method (Recirculating still)

SMILES | vapor or sublimation pressure (449.39 K) [kPa] | vapor or sublimation pressure (428.65 K) [kPa]
Cc1ccc(C(C)C)cc1 [1-(1-methylethyl)-4-methylbenzene] | 100.7 ± 0.6 | –
CC1=CCC2CC1C2(C)C (configuration not stated) [2-pinene] | – | 100.7 ± 1.1
